# Data from patent US20220330549A1, “USE OF N-BENZYLBENZAMIDE-BASED COMPOUND AS HERBICIDE” (Northwest A&F University, priority 2020, published 2022).
# How the values were obtained:
# Format in all cases: in vivo
# Barnyard grass [1] = assay: Herbicidal activity test for indoor pre-emergence soil treatment; design: key: level 1-9; higher = more weed remaining vs blank control; details: 150 g a.i./ha, visual inspection 21 days after treatment
# Outline: (§1)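 Pre-emergence soil spray per NY/T 1155.3-2006: weed seeds sown in moistened neutral sandy loam (organic content ≤2%), covered with 0.5–2.0 cm soil, then sprayed 24 h later with a water-diluted 10% emulsifiable concentrate at 150 g(a.i.)/ha. Visual rating after 21 days on a 1–9 scale.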
# green bristlegrass [2] = assay: as above; design: key: level 1-9; higher = more weed remaining vs blank control; details: 150 g a.i./ha, visual inspection 21 days after treatment
# Outline: as §1
# Piemarker [3] = assay: as above; design: key: level 1-9; higher = more weed remaining vs blank control; details: 150 g a.i./ha, visual inspection 21 days after treatment
# Outline: as §1
# Humulus scandens [4] = assay: as above; details: 150 g a.i./ha, visual inspection 21 days after treatment
# Outline: as §1
# Humulus scandens [5] = assay: Herbicidal activity test for indoor post-emergence spraying on stems and leaves; design: key: grade level by weed remaining vs blank control, e.g. 5 = 10.1-15%; details: 150 g a.i./ha, visual inspection 21 days after treatment
# Outline: (§2)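 Run per NY/T 1155.4-2006: weeds sown, grown in greenhouse, then sprayed post-emergence on stems and leaves. Effect scored visually 21 days after treatment on a graded level scale relative to weed in the blank control area.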
# Amaranthus retroflexus [6] = assay: as above; design: key: grade level by weed remaining vs blank control, e.g. 5 = 10.1-15%; details: 150 g a.i./ha, visual inspection 21 days after treatment
# Outline: as §2
# Digitaria sanguinalis [7] = assay: as above; design: key: grade level by weed remaining vs blank control, e.g. 5 = 10.1-15%; details: 150 g a.i./ha, visual inspection 21 days after treatment
# Outline: as §2
# Barnyard grass [8] = assay: as above; design: key: grade level by weed remaining vs blank control, e.g. 5 = 10.1-15%; details: 150 g a.i./ha, visual inspection 21 days after treatment
# Outline: as §2
# green bristlegrass [9] = assay: as above; design: key: grade level by weed remaining vs blank control, e.g. 5 = 10.1-15%; details: 150 g a.i./ha, visual inspection 21 days after treatment
# Outline: as §2
# Piemarker [10] = assay: as above; design: key: grade level by weed remaining vs blank control, e.g. 5 = 10.1-15%; details: 150 g a.i./ha, visual inspection 21 days after treatment
# Outline: as §2
# Cyperaceae = assay: Post-emergence herbicidal activity test in a paddy field; design: key: level scale; higher level = more weed left vs blank control; details: 150 g a.i./ha (penoxsulam control 250 g(a.i.)/h)
# Outline: (§3)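 Efficacy was visually estimated 15 and 30 days after spraying, grading weed coverage relative to an untreated neighbouring plot (level 2 = 0 to 2.5%, level 9 = 67.6 to 100%). Treatments were 150 g(a.i.)/ha from 10% emulsifiable concentrates applied at the 4-5 leaf rice stage, four repeats of 50 m^2 each.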
# Gramineae = assay: as above; design: key: level scale; higher level = more weed left vs blank control; details: 150 g a.i./ha (penoxsulam control 250 g(a.i.)/h)
# Outline: as §3
# Broadleaf weed = assay: as above; design: key: level scale; higher level = more weed left vs blank control; details: 150 g a.i./ha (penoxsulam control 250 g(a.i.)/h)
# Outline: as §3
# Solanum nigrum = assay: Field test for weed control in a corn field; details: for Post-emergence weed control effect, Solanum nigrum: 150 g a.i./ha, 30 days after treatment; for controlling effect on Solanum nigrum: 150 g(a.i.)/ha, 21 days after treatments
# Outline: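 Post-emergence weed control was tested in a corn field following GB/T 17980.42-2000. Compounds were made into 10% emulsifiable concentrates, diluted in water and sprayed at 150 g(a.i.)/ha when corn had 2 to 5 leaves after sowing, in 20 m^2 plots with 4 replicates. Effects on Solanum nigrum were graded on a 1-9 scale relative to the blank control area.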
# Portulaca oleracea = assay: Field test for weed control in a corn field; details: for Post-emergence weed control effect, Portulaca oleracea: 150 g a.i./ha, after treatment; for controlling effect on Portulaca oleracea: 150 g(a.i.)/ha, 21 days after treatments
# Outline: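 Field efficacy trial in corn following GB/T 17980.42-2000. Test compounds were prepared as 10% emulsifiable concentrates, diluted in water, and sprayed at 150 g(a.i.)/ha when corn had 2 to 5 leaves after sowing. Plots were 20 m^2 with 4 replicates per treatment. Herbicidal activity was scored on a 1-9 scale from weed damage symptoms and severity.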
# nutgrass flatsedge = assay: Field test for weed control in a corn field; details: for Post-emergence weed control effect, Nutgrass flatsedge: 150 g a.i./ha, after treatment; for controlling effect on nutgrass flatsedge: 150 g(a.i.)/ha, 21 days after treatments
# Outline: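 A corn field efficacy trial following GB/T 17980.42-2000 assessed post-emergence control of nutgrass flatsedge. Test compounds were formulated as 10% emulsifiable concentrates, diluted in water, and sprayed at 150 g(a.i.)/ha when the corn had 2 to 5 leaves. Each treatment had 4 replicates on 20 m^2 plots. Herbicidal activity was graded on a 1-9 scale by damage symptoms and severity.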
# Acalypha australis = assay: Field test for weed control in a corn field; details: for Post-emergence weed control effect, Acalypha australis: 150 g a.i./ha, after treatment; for controlling effect on Acalypha australis: 150 g(a.i.)/ha, 21 days after treatments
# Outline: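 Post-emergence field trial in a corn field following GB/T 17980.42-2000. Test compounds were formulated as 10% emulsifiable concentrates, diluted in water, and sprayed at 150 g(a.i.)/ha when corn had 2 to 5 leaves, with 4 replicates on 20 m^2 plots. Mesotrione 25% oil dispersion served as the control agent. Weed control was scored on a 1-9 scale.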
# Amaranthus retroflexus [11] = assay: Field test for weed control in a corn field; details: for Post-emergence weed control effect, Amaranthus retroflexus: 150 g a.i./ha, 30 days after treatment; for controlling effect on Amaranthus retroflexus: 150 g(a.i.)/ha, 21 days after treatments
# Outline: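 Field efficacy trial in a corn field following GB/T 17980.42-2000. Test compounds were formulated as 10% emulsifiable concentrates, diluted in water and sprayed post-emergence when corn had 2 to 5 leaves. Each treatment covered 20 m^2 with 4 replicates. A 25% mesotrione oil dispersion served as control. Damage to Amaranthus retroflexus was rated on a 1-9 scale against untreated blank plots.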
# goosegrass = assay: Field test for weed control in a corn field; details: for Post-emergence weed control effect, Goose grass: 150 g a.i./ha, after treatment; for controlling effect on goosegrass: 150 g(a.i.)/ha, 21 days after treatments
# Outline: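 Weed control efficacy against goosegrass was tested in a corn field following GB/T 17980.42-2000. Compounds formulated as 10% emulsifiable concentrates were diluted in water and sprayed post-emergence at 150 g(a.i.)/ha when corn had 2 to 5 leaves, with 4 replicates of 20 m^2 plots. Herbicidal activity was rated on a 1-9 scale by damage symptoms and severity.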
# Digitaria sanguinalis [12] = assay: Field test for weed control in a corn field; details: for Post-emergence weed control effect, Digitaria sanguinalis: 150 g a.i./ha, after treatment; for controlling effect on Digitaria sanguinalis: 150 g(a.i.)/ha, 21 days after treatments
# Outline: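 Field trial in a corn field following GB/T 17980.42-2000. Test compounds were formulated as 10% emulsifiable concentrates, diluted in water and sprayed post-emergence at 150 g(a.i.)/ha when corn had 2 to 5 leaves, with 4 replicates on 20 m^2 plots. Control of Digitaria sanguinalis was scored on a 1-9 scale based on weed damage relative to the untreated blank area.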
# Chenopodium album = assay: Field test for weed control in a corn field; details: for Post-emergence weed control effect, Chenopodium album: 150 g a.i./ha, after treatment; for controlling effect on Chenopodium album: 150 g(a.i.)/ha, 21 days after treatments
# Outline: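 A corn-field efficacy trial following GB/T 17980.42-2000 tested post-emergence control of Chenopodium album. Test compounds formulated as 10% emulsifiable concentrates were diluted in water and sprayed at 150 g(a.i.)/ha when the corn had 2 leaves to 5 leaves, on 20 m^2 plots with 4 replicates. Herbicidal activity was rated on a 1-9 scale by damage symptoms and severity.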
# Barnyard grass [13] = assay: Field test for weed control in a corn field; details: for Post-emergence weed control effect, Barnyard grass: 150 g a.i./ha, 30 days after treatment; for controlling effect on barnyard grass: 150 g(a.i.)/ha, 21 days after treatments
# Outline: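 Corn-field efficacy trial following GB/T 17980.42-2000. Test compounds were formulated as 10% emulsifiable concentrates, diluted in water and sprayed post-emergence at 150 g(a.i.)/ha when corn had 2 to 5 leaves. Each treatment was replicated 4 times on 20 m^2 plots. Barnyard grass control was rated on a 1-9 damage scale.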
# green bristlegrass [14] = assay: Field test for weed control in a corn field; details: for Post-emergence weed control effect, Green bristlegrass: 150 g a.i./ha, after treatment; for controlling effect on green bristlegrass: 150 g(a.i.)/ha, 21 days after treatments
# Outline: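 Post-emergence weed control was tested in a corn field following GB/T 17980.42-2000. When the corn had 2 leaves to 5 leaves after sowing, 10% emulsifiable concentrates diluted in water were sprayed at 150 g(a.i.)/ha on 20 m^2 plots, four replicates per treatment. Effects on green bristlegrass were scored on a 1-9 damage scale relative to the blank control area.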
# Convolvulus arvensis = assay: Field test for weed control in a corn field; details: for Post-emergence weed control effect, Convolvulus arvensis: 150 g a.i./ha, after treatment; for controlling effect on Convolvulus arvensis: 150 g(a.i.)/ha, 21 days after treatments
# Outline: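 Field trial of weed control against Convolvulus arvensis in corn, run following GB/T 17980.42-2000. Test agents were formulated as 10% emulsifiable concentrates and sprayed in water at 150 g(a.i.)/ha when corn plants had 2 to 5 leaves. Each treatment was replicated 4 times on 20 m^2 plots, and 25% mesotrione oil dispersion served as the control agent.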
# Amaranthus retroflexus [15] = assay: Herbicidal activity test for indoor pre-emergence soil treatment; design: key: 1-9 levels; higher = more weed remaining vs blank control; details: 150 g a.i./ha, visual inspection 21 days after treatment
# Outline: as §1
# Digitaria sanguinalis [16] = assay: as above; design: key: 1-9 levels; higher = more weed remaining vs blank control; details: 150 g a.i./ha, visual inspection 21 days after treatment
# Outline: as §1
SMILES,Herbicidal Activity Barnyard grass (Barnyard grass [1]),Herbicidal Activity Green bristlegrass (green bristlegrass [2]),Herbicidal Activity Piemarker (Piemarker [3]),Herbicidal Activity Humulus scandens (Humulus scandens [4]),Herbicidal Activity Humulus scandens (Humulus scandens [5]),Herbicidal Activity Amaranthus retroflexus (Amaranthus retroflexus [6]),Herbicidal Activity Digitaria sanguinalis (Digitaria sanguinalis [7]),Herbicidal Activity Barnyard grass (Barnyard grass [8]),Herbicidal Activity Green bristlegrass (green bristlegrass [9]),Herbicidal Activity Piemarker (Piemarker [10]),Herbicidal activity 15 days after treatment Cyperaceae (Cyperaceae),Herbicidal activity 30 days after treatment Cyperaceae (Cyperaceae),Herbicidal activity 15 days after treatment Gramineae (Gramineae),Herbicidal activity 30 days after treatment Gramineae (Gramineae),Herbicidal activity 15 days after treatment Broadleaf weed (Broadleaf weed),Herbicidal activity 30 days after treatment Broadleaf weed (Broadleaf weed),"Post-emergence weed control effect, Solanum nigrum (Solanum nigrum)",controlling effect on Solanum nigrum (Solanum nigrum),"Post-emergence weed control effect, Portulaca oleracea (Portulaca oleracea)",controlling effect on Portulaca oleracea (Portulaca oleracea),also measured
Cc1cccc(C(=O)NCc2cc(F)cc(Cl)c2)n1 [Compound B27],1,1,1,1,1,1,1,1,1,1,1,1,1,1,1,1,1,1,1,1,"Post-emergence weed control effect, Nutgrass flatsedge (nutgrass flatsedge): 1; controlling effect on nutgrass flatsedge (nutgrass flatsedge): 1; Post-emergence weed control effect, Acalypha australis (Acalypha australis): 1; controlling effect on Acalypha australis (Acalypha australis): 1; Post-emergence weed control effect, Amaranthus retroflexus (Amaranthus retroflexus [11]): 1; controlling effect on Amaranthus retroflexus (Amaranthus retroflexus [11]): 1; Post-emergence weed control effect, Goose grass (goosegrass): 1; controlling effect on goosegrass (goosegrass): 1; Post-emergence weed control effect, Digitaria sanguinalis (Digitaria sanguinalis [12]): 1; controlling effect on Digitaria sanguinalis (Digitaria sanguinalis [12]): 1; Post-emergence weed control effect, Chenopodium album (Chenopodium album): 1; controlling effect on Chenopodium album (Chenopodium album): 1; Post-emergence weed control effect, Barnyard grass (Barnyard grass [13]): 1; controlling effect on barnyard grass (Barnyard grass [13]): 1; Post-emergence weed control effect, Green bristlegrass (green bristlegrass [14]): 1; controlling effect on green bristlegrass (green bristlegrass [14]): 1; Post-emergence weed control effect, Convolvulus arvensis (Convolvulus arvensis): 1; controlling effect on Convolvulus arvensis (Convolvulus arvensis): 1; Herbicidal Activity Amaranthus retroflexus (Amaranthus retroflexus [15]): 1; Herbicidal Activity Digitaria sanguinalis (Digitaria sanguinalis [16]): 1"
Cc1cccc(C(=O)NCc2ccc(F)c(Cl)c2)n1 [Compound B30],1,1,1,2 (equivalent to 0 to 2.5% of the weed in the blank control area),1,1,1,1,1,1,1,2 (equivalent to 0 to 2.5% of the weed in the blank control area),1,1,1,1,1,1,1,1,"Post-emergence weed control effect, Nutgrass flatsedge (nutgrass flatsedge): 1; controlling effect on nutgrass flatsedge (nutgrass flatsedge): 1; Post-emergence weed control effect, Acalypha australis (Acalypha australis): 1; controlling effect on Acalypha australis (Acalypha australis): 1; Post-emergence weed control effect, Amaranthus retroflexus (Amaranthus retroflexus [11]): 1; controlling effect on Amaranthus retroflexus (Amaranthus retroflexus [11]): 1; Post-emergence weed control effect, Goose grass (goosegrass): 1; controlling effect on goosegrass (goosegrass): 1; Post-emergence weed control effect, Digitaria sanguinalis (Digitaria sanguinalis [12]): 1; controlling effect on Digitaria sanguinalis (Digitaria sanguinalis [12]): 1; Post-emergence weed control effect, Chenopodium album (Chenopodium album): 1; controlling effect on Chenopodium album (Chenopodium album): 1; Post-emergence weed control effect, Barnyard grass (Barnyard grass [13]): 1; controlling effect on barnyard grass (Barnyard grass [13]): 1; Post-emergence weed control effect, Green bristlegrass (green bristlegrass [14]): 1; controlling effect on green bristlegrass (green bristlegrass [14]): 1; Post-emergence weed control effect, Convolvulus arvensis (Convolvulus arvensis): 1; controlling effect on Convolvulus arvensis (Convolvulus arvensis): 1; Herbicidal Activity Amaranthus retroflexus (Amaranthus retroflexus [15]): 1; Herbicidal Activity Digitaria sanguinalis (Digitaria sanguinalis [16]): 1"
